Type in all cases: in vivo
The subject of one series is Glycine max. The series can be described thus: Test Example 4: effect on crop by application to foliage (diluvial soil, plastic box). As to conditions: for d (Glycine max) effect on crop grade / c: Application herbicide amount 320 g/ha; for d (Glycine max) effect on crop grade: foliage application; for d: effect on crop, Glycine max: application to foliage, application herbicide amount 320 g/ha; for c: effect on crop. The method, boiled down: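 Read-out is a 0–5 visual grade of herbicidal ratio (5: ≥90%, almost withered; 0: ≤5%) taken three weeks after treatment. Compound was applied as a diluted emulsion to stem and leaf parts of 14-day greenhouse-grown plants (25° C. to 30° C.) at rates expressed as g/ha.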

The subject of another series is Scirpus juncoides. As to the kind of experiment: Test Example 1: herbicidal activity, application before weed generation in submerged conditions. The settings on record: Application herbicide amount 320 g/ha; Seventeenth Table. The essentials: (§1)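 Submerged pot test: alluvial soil, 4 cm water, seeds sown mixed, 2.5-leaf rice transplanted; emulsion in water applied to surface day of sowing, dose g/ha; greenhouse 25–30° C.; 3 wk; 0–5 rating.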

For another series, the system named is Monochoria vaginalis. The series is described as above. The settings on record: Application herbicide amount 320 g/ha; Seventeenth Table. The method, boiled down:
as §1

Series [1] concerns Echinochloa oryzacola Vasing. The series is described as above. The settings on record: Application herbicide amount 320 g/ha; Seventeenth Table. The essentials: as §1
The next series has as its system Cyperus difformis. The series can be described thus: Test Example 3: herbicidal effect by application to foliage (Wagner pot, water depth 0.1-0.5 cm). The settings on record: Nineteenth Table; application to foliage; application herbicide amount 320 g/ha. The method, boiled down:
(§2)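 Visual 0–5 rating of herbicidal ratio, taken 3 weeks after foliar spray of a diluted emulsion formulation at rates expressed as g/ha. Plants had been sown in alluvial soil under 0.1–0.5 cm water and grown 14 days at 25–30 °C under glass before application.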

Series [2] relates to Echinochloa crus-galli var. crus-galli. The series is described as above. As to conditions: Nineteenth Table; application to foliage; application herbicide amount 320 g/ha. The essentials:
as §2

For the next series, the system named is Leptochloa chinensis. The series is described as above. The settings on record: Nineteenth Table; application to foliage; application herbicide amount 320 g/ha. The essentials:
as §2

As to `CCN(C)c1nnc2c(C(=O)Nc3nnc(C)o3)ccc(C(F)(F)F)n12` [1-134], in the series with Glycine max, the “d (Glycine max) effect on crop grade” value was 3 (Herbicidal ratio of 40% or more and less than 70%). Further, the “B: Scirpus juncoides (herbicidal effect grade)” value (“B: Scirpus juncoides” below) in the series on Scirpus juncoides was 3 (Herbicidal ratio of 40% or more and less than 70%). The “C: Monochoria vaginalis (herbicidal effect grade)” value (“C: Monochoria vaginalis” for short) in the series on Monochoria vaginalis is 2 (Herbicidal ratio of 20% or more and less than 40%). The “A: Echinochloa oryzicola Vasing. (herbicidal effect grade)” value in series [1] is 3 (Herbicidal ratio of 40% or more and less than 70%). In the series on Cyperus difformis, the “E (herbicidal effect grade)” value was 2 (Herbicidal ratio of 20% or more and less than 40%). Moreover, the “H (herbicidal effect grade)” value in series [2] is on record as 5 (Herbicidal ratio of 90% or more (almost completely withered)). In the series with Leptochloa chinensis, the “D (herbicidal effect grade)” value is 4 (Herbicidal ratio of 70% or more and less than 90%).
On to `COc1ccc(-c2nnc3c(C(=O)Nc4nnnn4C)ccc(C(F)(F)F)n23)cc1` [2-011], for which the “d: effect on crop, Glycine max” value in the series with Glycine max is 4 (Herbicidal ratio of 70% or more and less than 90%). Also, the “B: Scirpus juncoides” value with Scirpus juncoides is recorded as 5 (Herbicidal ratio of 90% or more (almost completely withered)). In the series on Monochoria vaginalis, the “C: Monochoria vaginalis” value is recorded as 5 (Herbicidal ratio of 90% or more (almost completely withered)). The “A: Echinochloa oryzicola Vasing. (herbicidal effect grade)” value in series [1] is recorded as 5 (Herbicidal ratio of 90% or more (almost completely withered)). For the same compound, the “E (herbicidal effect grade)” value in the series with Cyperus difformis was 5 (Herbicidal ratio of 90% or more (almost completely withered)). Besides, the “H (herbicidal effect grade)” value in series [2] is 5 (Herbicidal ratio of 90% or more (almost completely withered)). Further, the “D (herbicidal effect grade)” value with Leptochloa chinensis is 5 (Herbicidal ratio of 90% or more (almost completely withered)).
Consider `CCOc1nnc2c(C(=O)Nc3nnco3)ccc(C(F)(F)F)n12` [1-112], for which the “d (Glycine max) effect on crop grade” value in the series on Glycine max was 3 (Herbicidal ratio of 40% or more and less than 70%). Besides, in the series with Scirpus juncoides, the “B: Scirpus juncoides” value is 3 (Herbicidal ratio of 40% or more and less than 70%). In the series on Monochoria vaginalis, the “C: Monochoria vaginalis” value is 2 (Herbicidal ratio of 20% or more and less than 40%). Also, the “A: Echinochloa oryzicola Vasing. (herbicidal effect grade)” value in series [1] was 3 (Herbicidal ratio of 40% or more and less than 70%). Also, in the series with Cyperus difformis, the “E (herbicidal effect grade)” value was 1 (Herbicidal ratio of 5% or more and less than 20%). Further, the “H (herbicidal effect grade)” value in series [2] is 3 (Herbicidal ratio of 40% or more and less than 70%). The “D (herbicidal effect grade)” value in the series with Leptochloa chinensis is 2 (Herbicidal ratio of 20% or more and less than 40%).
For `COCCOCc1nnc2c(C(=O)Nc3nnco3)ccc(C(F)(F)F)n12` [1-107], in the series with Glycine max, the “d (Glycine max) effect on crop grade” value is on record as 5 (Herbicidal ratio of 90% or more (almost completely withered)). Further, the “B: Scirpus juncoides” value with Scirpus juncoides was 4 (Herbicidal ratio of 70% or more and less than 90%). Further, in the series on Monochoria vaginalis, the “C: Monochoria vaginalis” value is recorded as 5 (Herbicidal ratio of 90% or more (almost completely withered)). In series [1], the “A: Echinochloa oryzicola Vasing. (herbicidal effect grade)” value is recorded as 5 (Herbicidal ratio of 90% or more (almost completely withered)). Moreover, the “E (herbicidal effect grade)” value in the series on Cyperus difformis is recorded as 5 (Herbicidal ratio of 90% or more (almost completely withered)). For the same compound, the “H (herbicidal effect grade)” value in series [2] is 5 (Herbicidal ratio of 90% or more (almost completely withered)). Further, the “D (herbicidal effect grade)” value with Leptochloa chinensis was 5 (Herbicidal ratio of 90% or more (almost completely withered)).
As to `C#CCN(C)c1nnc2c(C(=O)Nc3nnc(C)o3)ccc(C(F)(F)F)n12` [1-152], in the series on Glycine max, the “d (Glycine max) effect on crop grade” value is 3 (Herbicidal ratio of 40% or more and less than 70%). In the series with Scirpus juncoides, the “B: Scirpus juncoides” value is 4 (Herbicidal ratio of 70% or more and less than 90%). Further, the “C: Monochoria vaginalis” value in the series on Monochoria vaginalis was 3 (Herbicidal ratio of 40% or more and less than 70%). For the same compound, in series [1], the “A: Echinochloa oryzicola Vasing. (herbicidal effect grade)” value is 5 (Herbicidal ratio of 90% or more (almost completely withered)). In the series on Cyperus difformis, the “E (herbicidal effect grade)” value was 4 (Herbicidal ratio of 70% or more and less than 90%). Further, the “H (herbicidal effect grade)” value in series [2] was 5 (Herbicidal ratio of 90% or more (almost completely withered)). Besides, the “D (herbicidal effect grade)” value with Leptochloa chinensis is recorded as 5 (Herbicidal ratio of 90% or more (almost completely withered)).
Take `Cc1nnc(NC(=O)c2ccc(C(F)(F)F)n3c(N(C)C4CCCCC4)nnc23)o1` [1-133]: the “d (Glycine max) effect on crop grade” value in the series with Glycine max was 3 (Herbicidal ratio of 40% or more and less than 70%). In addition, the “B: Scirpus juncoides” value in the series on Scirpus juncoides is 3 (Herbicidal ratio of 40% or more and less than 70%). The “C: Monochoria vaginalis” value in the series with Monochoria vaginalis is 4 (Herbicidal ratio of 70% or more and less than 90%). Moreover, in series [1], the “A: Echinochloa oryzicola Vasing. (herbicidal effect grade)” value was 5 (Herbicidal ratio of 90% or more (almost completely withered)). Further, the “E (herbicidal effect grade)” value in the series on Cyperus difformis is 0 (Herbicidal ratio of 5% or less (almost no effect)). For the same compound, the “H (herbicidal effect grade)” value in series [2] is 4 (Herbicidal ratio of 70% or more and less than 90%). Further, the “D (herbicidal effect grade)” value in the series with Leptochloa chinensis is 2 (Herbicidal ratio of 20% or more and less than 40%).
Regarding `CC(=O)CSc1nnc2c(C(=O)Nc3nnc(C)o3)ccc(C(F)(F)F)n12` [1-125], the “d (Glycine max) effect on crop grade” value with Glycine max is 3 (Herbicidal ratio of 40% or more and less than 70%). In the series on Scirpus juncoides, the “B: Scirpus juncoides” value is 3 (Herbicidal ratio of 40% or more and less than 70%). The “C: Monochoria vaginalis” value with Monochoria vaginalis is 1 (Herbicidal ratio of 5% or more and less than 20%). In addition, the “A: Echinochloa oryzicola Vasing. (herbicidal effect grade)” value in series [1] is listed as 0 (Herbicidal ratio of 5% or less (almost no effect)). Besides, the “E (herbicidal effect grade)” value with Cyperus difformis is 3 (Herbicidal ratio of 40% or more and less than 70%). Also, the “H (herbicidal effect grade)” value in series [2] is reported as 5 (Herbicidal ratio of 90% or more (almost completely withered)). Further, the “D (herbicidal effect grade)” value with Leptochloa chinensis was 4 (Herbicidal ratio of 70% or more and less than 90%).
As for `Cc1nnc(NC(=O)c2ccc(C(F)(F)F)n3c(CC4CC4)nnc23)o1` [1-104], the c in the series on Glycine max was 3 (Herbicidal ratio of 40% or more and less than 70%). In addition, the “B: Scirpus juncoides” value in the series on Scirpus juncoides was 3 (Herbicidal ratio of 40% or more and less than 70%). Besides, the “C: Monochoria vaginalis” value in the series with Monochoria vaginalis is 2 (Herbicidal ratio of 20% or more and less than 40%). Also, in series [1], the “A: Echinochloa oryzicola Vasing. (herbicidal effect grade)” value is 4 (Herbicidal ratio of 70% or more and less than 90%). Also, the “E (herbicidal effect grade)” value in the series with Cyperus difformis is 4 (Herbicidal ratio of 70% or more and less than 90%). Moreover, in series [2], the “H (herbicidal effect grade)” value is given as 5 (Herbicidal ratio of 90% or more (almost completely withered)). Besides, the “D (herbicidal effect grade)” value in the series on Leptochloa chinensis is 5 (Herbicidal ratio of 90% or more (almost completely withered)).
For `CC(=O)OCc1nnc2c(C(=O)Nc3nnc(C)o3)ccc(C(F)(F)F)n12` [1-062], in the series with Glycine max, the c is listed as 0 (Herbicidal ratio of 5% or less (almost no effect)). Further, the “B: Scirpus juncoides” value in the series with Scirpus juncoides is 2 (Herbicidal ratio of 20% or more and less than 40%). Further, the “C: Monochoria vaginalis” value in the series with Monochoria vaginalis was 1 (Herbicidal ratio of 5% or more and less than 20%). Also, in series [1], the “A: Echinochloa oryzicola Vasing. (herbicidal effect grade)” value was 3 (Herbicidal ratio of 40% or more and less than 70%). In addition, in the series with Cyperus difformis, the “E (herbicidal effect grade)” value was 4 (Herbicidal ratio of 70% or more and less than 90%). Moreover, in series [2], the “H (herbicidal effect grade)” value is recorded as 5 (Herbicidal ratio of 90% or more (almost completely withered)). Besides, in the series with Leptochloa chinensis, the “D (herbicidal effect grade)” value was 4 (Herbicidal ratio of 70% or more and less than 90%).
With `COc1ccc(N(C)c2nnc3c(C(=O)Nc4nnc(C)o4)ccc(C(F)(F)F)n23)cc1` [1-165], the “d: effect on crop, Glycine max” value with Glycine max was 1 (Herbicidal ratio of 5% or more and less than 20%). Also, the “B: Scirpus juncoides” value in the series with Scirpus juncoides was 3 (Herbicidal ratio of 40% or more and less than 70%). Besides, the “C: Monochoria vaginalis” value in the series on Monochoria vaginalis is 4 (Herbicidal ratio of 70% or more and less than 90%). Moreover, the “A: Echinochloa oryzicola Vasing. (herbicidal effect grade)” value in series [1] was 4 (Herbicidal ratio of 70% or more and less than 90%). The “H (herbicidal effect grade)” value in series [2] was 5 (Herbicidal ratio of 90% or more (almost completely withered)). Also, the “D (herbicidal effect grade)” value in the series with Leptochloa chinensis is 4 (Herbicidal ratio of 70% or more and less than 90%).
With `COc1ccc(CN(C)c2nnc3c(C(=O)Nc4nnc(C)o4)ccc(C(F)(F)F)n23)cc1` [1-167], the “d: effect on crop, Glycine max” value in the series with Glycine max is 1 (Herbicidal ratio of 5% or more and less than 20%). For the same compound, in the series on Scirpus juncoides, the “B: Scirpus juncoides” value was 2 (Herbicidal ratio of 20% or more and less than 40%). In the series on Monochoria vaginalis, the “C: Monochoria vaginalis” value is listed as 0 (Herbicidal ratio of 5% or less (almost no effect)). Moreover, in series [1], the “A: Echinochloa oryzicola Vasing. (herbicidal effect grade)” value is 4 (Herbicidal ratio of 70% or more and less than 90%). Further, the “H (herbicidal effect grade)” value in series [2] was 1 (Herbicidal ratio of 5% or more and less than 20%). Further, in the series with Leptochloa chinensis, the “D (herbicidal effect grade)” value was 2 (Herbicidal ratio of 20% or more and less than 40%).
In the case of `COC1CCC(c2nnc3c(C(=O)Nc4nnc(C)o4)ccc(C(F)(F)F)n23)CC1` (stereo not drawn) [1-169], the “d: effect on crop, Glycine max” value in the series on Glycine max was 5 (Herbicidal ratio of 90% or more (almost completely withered)). For the same compound, the “B: Scirpus juncoides” value in the series on Scirpus juncoides was 4 (Herbicidal ratio of 70% or more and less than 90%). The “C: Monochoria vaginalis” value in the series on Monochoria vaginalis is 4 (Herbicidal ratio of 70% or more and less than 90%). In addition, the “A: Echinochloa oryzicola Vasing. (herbicidal effect grade)” value in series [1] was 5 (Herbicidal ratio of 90% or more (almost completely withered)). Besides, the “H (herbicidal effect grade)” value in series [2] was 5 (Herbicidal ratio of 90% or more (almost completely withered)). Besides, in the series on Leptochloa chinensis, the “D (herbicidal effect grade)” value was 4 (Herbicidal ratio of 70% or more and less than 90%).

The values are drawn from US9708314B2, “Heterocyclic amide compound” (NISSAN CHEMICAL INDUSTRIES, LTD., priority 2013, dated 2017).
